Experimental data reported in patent US9221816B2, “2-oxo-2,3-dihydro-indoles for the treatment of CNS disorders” (Hoffmann-La Roche Inc., priority 2012, dated 2015).

These compounds were tested on L-687,414-induced hyperlocomotion (assay: L-687,414-induced hyperlocomotion (Digiscan locomotor activity)). Conditions: dose ip 30, at the same time as s.c. 50 mg/kg L-687,414; % inhibition of horizontal activity; mice.
Type: in vivo, mouse
Protocol: The authors described that hyperlocomotion induced by L-687,414 was inhibited by a series of known antipsychotic drugs. […] These findings predict antipsychotic activity for the present compounds, making them useful for the treatment of schizophrenia and other disorders as described above.
The described compounds of formula I and I-1 reduce L-687,414-induced hyperlocomotion. This was assessed by using a computerized Digiscan 16 Animal Activity Monitoring System (Omnitech Electronics, Columbus, Ohio) to quantify locomotor activity. Animals were kept under a 12 h light/dark cycle and experiments were performed during the light period. Each activity monitoring chamber consisted of a Plexiglas box (41×41×28 cm; W×L×H) with sawdust bedding on the floor surrounded by invisible horizontal and vertical infrared sensor beams. The test boxes were divided by a Plexiglas cross providing each mouse with 20×20 cm of moving space. Cages were connected to a Digiscan Analyzer linked to a computer that constantly collected the beam status information. Records of photocell beam interruptions for individual animals were taken every 5 min over the duration of the experimental session and the sum of the first 6 periods was used as the final parameter. Compounds were administered either p.o. 15 min before a s.c. injection of 50 mg/kg of L-687,414, or i.p. at the same time as a s.c. injection of 50 mg/kg of L-687,414. Mice were then transferred from their home cage to the recording chambers for a 15-min habituation phase allowing free exploration of the new environment. Horizontal activity was then recorded for a 30-min time period. The % inhibition of L-687,414-induced hyperlocomotion was calculated according to the equation: ((Veh+L-687,414 horizontal activity−drug+L-687,414 horizontal activity)/Veh+L-687,414 horizontal activity)×100
ID50 values, defined as doses of each compound producing 50% inhibition of L-687,414-induced hyperlocomotion, were calculated by linear regression analysis of a dose-response data using an Excel-based computer-fitting program.
As data was not presupposed to be normally distributed, groups treated with test compounds were statistically compared with the control (vehicle-treated) group using one-tailed Mann Whitney U tests. In statistics, the Mann-Whitney U test (also called the Mann-Whitney-Wilcoxon (MWW) or Wilcoxon rank-sum test) is a non-parametric statistical hypothesis test for assessing whether one of two samples of independent observations tends to have larger values than the other. It is one of the most well-known non-parametric significance tests. […] P values given in table 1 are one-tailed since only decreases in locomotion were expected and tested for (Mann, H. B., Whitney, D. R. (1947), “On a Test of Whether one of Two Random Variables is Stochastically Larger than the Other”, Annals of Mathematical Statistics, 18 (1), 50-60).

For `Cc1cc(C(=O)Nc2ccc3c(c2)NC(=O)C3(C)C)ccn1` [Example 1, N-(3,3-Dimethyl-2-oxo-2,3-dihydro-1H-indol-6-yl)-2-methyl-isonicotinamide], which “Inhibition, ip” value is on record?
Its value is 81.6%.

`CN1C(=O)C2(CCCC2)c2ccc(NC(=O)c3ccncc3)cc21` [Example 3, N-(1′-Methyl-2′-oxospiro[cyclopentane-1,3′-indoline]-6′-yl)isonicotinamide] was tested. Which “Inhibition, ip” value did it give?
Its value is 83.3%.

For `Cc1cc(C(=O)Nc2ccc3c(c2)N(C)C(=O)C3(C)C)ccn1` [Example 5, 2-Methyl-N-(1,3,3-trimethyl-2-oxoindolin-6-yl)isonicotinamide], which “Inhibition, ip” value is on record?
Its value is 77.2%.

Which “Inhibition, ip” value does the source give for `CN1C(=O)C(C)(C)c2cnc(NC(=O)c3ccncc3)cc21` [Example 6, N-(1,3,3-Trimethyl-2-oxo-2,3-dihydro-1H-pyrrolo[3,2-c]pyridin-6-yl)isonicotinamide] here?
The value was 64.5%.

How did the “Inhibition, ip” value turn out when `CCN1C(=O)C(C)(C)c2ccc(NC(=O)c3ccncc3)cc21` [Example 7, N-(1-ethyl-3,3-dimethyl-2-oxoindolin-6-yl)isonicotinamide] was run?
The value was 90.4%.

For `Cc1cc(C(=O)Nc2ccc3c(c2)N(C)C(=O)C3(C)C)nc(C)n1` [Example 8, 2,6-Dimethyl-N-(1,3,3-trimethyl-2-oxoindolin-6-yl)pyrimidine-4-carboxamide], which “Inhibition, ip” value is on record?
The value was 70.7%.

Which “Inhibition, ip” value does the source give for `COc1ccc(C(=O)Nc2ccc3c(c2)N(C)C(=O)C3(C)C)cn1` [Example 10, 6-Methoxy-N-(1,3,3-trimethyl-2-oxoindolin-6-yl)nicotinamide] here?
The value was 62.2%.

`Cc1ncc(C(=O)Nc2ccc3c(c2)N(C)C(=O)C3(C)C)c(C)n1` [Example 12, 2,4-Dimethyl-N-(1,3,3-trimethyl-2-oxoindolin-6-yl)pyrimidine-5-carboxamide] was tested. Which “Inhibition, ip” value did it give?
The value was 69.2%.

`CC1(C)C(=O)N(C2CC2)c2cc(NC(=O)c3ccncc3)ccc21` [Example 14, N-(1-Cyclopropyl-3,3-dimethyl-2-oxoindolin-6-yl)isonicotinamide] was tested. Which “Inhibition, ip” value did it give?
The value was 66.5%.

`COc1cnccc1C(=O)Nc1ccc2c(c1)N(C)C(=O)C2(C)C` [Example 15, 3-Methoxy-N-(1,3,3-trimethyl-2-oxoindolin-6-yl)isonicotinamide] was tested. Which “Inhibition, ip” value did it give?
The value was 56.3%.

`Cc1cc(C(=O)Nc2ccc3c(c2)N(C2CC2)C(=O)C3(C)C)ccn1` [Example 17, N-(1-Cyclopropyl-3,3-dimethyl-2-oxoindolin-6-yl)-2-methylisonicotinamide] was tested. Which “Inhibition, ip” value did it give?
Its value is 79.3%.

With `CC1(C)C(=O)N(C2CC2)c2cc(NC(=O)c3cccnc3)ccc21` [Example 18, N-(1-Cyclopropyl-3,3-dimethyl-2-oxoindolin-6-yl)nicotinamide] as the compound, how does the “Inhibition, ip” value read?
The value was 68.8%.

How did the “Inhibition, ip” value turn out when `CN1C(=O)C(C)(C)c2cc(F)c(NC(=O)c3ccncc3)cc21` [Example 20, N-(5-Fluoro-1,3,3-trimethyl-2-oxoindolin-6-yl)isonicotinamide] was run?
Its value is 87.3%.

How did the “Inhibition, ip” value turn out when `CCN1C(=O)C(C)(C)c2ccc(NC(=O)c3cccnc3)cc21` [Example 21, N-(1-Ethyl-3,3-dimethyl-2-oxoindolin-6-yl)nicotinamide] was run?
Its value is 76.6%.

How did the “Inhibition, ip” value turn out when `CN1C(=O)C(C)(C)c2cc(F)c(NC(=O)c3cccnc3)cc21` [Example 24, N-(5-fluoro-1,3,3-trimethyl-2-oxoindolin-6-yl)nicotinamide] was run?
The value was 80.0%.

With `Cc1cc(C(=O)Nc2ccc3c(c2F)N(C)C(=O)C3(C)C)ccn1` [Example 28, N-(7-fluoro-1,3,3-trimethyl-2-oxoindolin-6-yl)-2-methylisonicotinamide] as the compound, how does the “Inhibition, ip” value read?
Its value is 74.7%.

How did the “Inhibition, ip” value turn out when `Cc1cc(C(=O)Nc2ccc3c(c2)N(C)C(=O)C3(C)C)c(F)cn1` [Example 33, 5-Fluoro-2-methyl-N-(1,3,3-trimethyl-2-oxoindolin-6-yl)isonicotinamide] was run?
Its value is 78.6%.

`Cc1cc(C(=O)Nc2cc3c(cc2Cl)C(C)(C)C(=O)N3C)ccn1` [Example 35, N-(5-Chloro-1,3,3-trimethyl-2-oxoindolin-6-yl)-2-methylisonicotinamide] was tested. Which “Inhibition, ip” value did it give?
Its value is 57.3%.

How did the “Inhibition, ip” value turn out when `CC1(C)C(=O)N(C2CC2)c2cc(NC(=O)c3ccncc3)c(F)cc21` [Example 36, N-(1-cyclopropyl-5-fluoro-3,3-dimethyl-2-oxoindolin-6-yl)isonicotinamide] was run?
The value was 89.0%.

How did the “Inhibition, ip” value turn out when `CC(C)N1C(=O)C(C)(C)c2ccc(NC(=O)c3cccnc3)cc21` [Example 37, N-(1-Isopropyl-3,3-dimethyl-2-oxoindolin-6-yl)nicotinamide] was run?
The value was 64.0%.

For `CC1(C)C(=O)N(C2CC2)c2cc(NC(=O)c3cccnc3)c(F)cc21` [Example 38, N-(1-Cyclopropyl-5-fluoro-3,3-dimethyl-2-oxoindolin-6-yl)nicotinamide], which “Inhibition, ip” value is on record?
Its value is 60.8%.

For `CCN1C(=O)C(C)(C)c2ccc(NC(=O)c3ccnc(C)c3)cc21` [Example 39, N-(1-Ethyl-3,3-dimethyl-2-oxoindolin-6-yl)-2-methylisonicotinamide], which “Inhibition, ip” value is on record?
The value was 58.6%.

`CCN1C(=O)C(C)(C)c2ccc(NC(=O)c3ccncc3Cl)cc21` [Example 40, 3-Chloro-N-(1-ethyl-3,3-dimethyl-2-oxoindolin-6-yl)isonicotinamide] was tested. Which “Inhibition, ip” value did it give?
The value was 72.9%.

With `CCN1C(=O)C(C)(C)c2ccc(NC(=O)c3ccncc3F)cc21` [Example 41, N-(1-ethyl-3,3-dimethyl-2-oxoindolin-6-yl)-3-fluoroisonicotinamide] as the compound, how does the “Inhibition, ip” value read?
Its value is 85.2%.

How did the “Inhibition, ip” value turn out when `CN1C(=O)C(C)(C)c2ccc(NC(=O)c3ccc(F)cc3)cc21` [Example 43, 4-Fluoro-N-(1,3,3-trimethyl-2-oxoindolin-6-yl)benzamide] was run?
The value was 88.0%.

For `Cc1cc(C(=O)Nc2cc3c(cc2F)C(C)(C)C(=O)N3C2CC2)ccn1` [Example 46, N-(1-Cyclopropyl-5-fluoro-3,3-dimethyl-2-oxoindolin-6-yl)-2-methylisonicotinamide], which “Inhibition, ip” value is on record?
Its value is 72.7%.

For `CN1C(=O)C(C)(C)c2cc(F)c(NC(=O)c3ccncc3Cl)cc21` [Example 51, 3-Chloro-N-(5-fluoro-1,3,3-trimethyl-2-oxoindolin-6-yl)isonicotinamide], which “Inhibition, ip” value is on record?
Its value is 80.1%.

Which “Inhibition, ip” value does the source give for `CC1(C)C(=O)N(CC2CC2)c2cc(NC(=O)c3ccncc3)ccc21` [Example 52, N-(1-(Cyclopropylmethyl)-3,3-dimethyl-2-oxoindolin-6-yl)isonicotinamide] here?
The value was 78.8%.

`CC1(C)C(=O)N(CC2CC2)c2cc(NC(=O)c3ccncc3F)ccc21` [Example 53, N-(1-(Cyclopropylmethyl)-3,3-dimethyl-2-oxoindolin-6-yl)-3-fluoroisonicotinamide] was tested. Which “Inhibition, ip” value did it give?
The value was 89.9%.

`Cc1cc(C(=O)Nc2ccc3c(c2)N(C2CC2)C(=O)C3(C)C)c(F)cn1` [Example 54, N-(1-Cyclopropyl-3,3-dimethyl-2-oxoindolin-6-yl)-5-fluoro-2-methylisonicotinamide] was tested. Which “Inhibition, ip” value did it give?
Its value is 55.6%.

How did the “Inhibition, ip” value turn out when `O=C(Nc1ccc2c(c1)N(C1CC1)C(=O)C21CC1)c1ccncc1` [Example 55, N-(1′-Cyclopropyl-2′-oxospiro[cyclopropane-1,3′-indoline]-6′-yl)isonicotinamide] was run?
Its value is 61.7%.

`O=C(Nc1ccc2c(c1)N(C1CC1)C(=O)C21CC1)c1ccncc1F` [Example 57, N-(1′-Cyclopropyl-2′-oxospiro[cyclopropane-1,3′-indoline]-6′-yl)-3-fluoroisonicotinamide] was tested. Which “Inhibition, ip” value did it give?
Its value is 60.5%.

For `CC1(C)C(=O)N(C2COC2)c2cc(NC(=O)c3ccncc3F)ccc21` [Example 59], which “Inhibition, ip” value is on record?
Its value is 88.6%.

Same assay, conditions: p.o. 15 min before s.c. 50 mg/kg L-687,414; dose producing 50% inhibition of hyperlocomotion; mice

`CN1C(=O)C(C)(C)c2ccc(NC(=O)c3ccncc3)cc21` [Example 2, N-(1,3,3-Trimethyl-2-oxo-2,3-dihydro-1H-indol-6-yl)-isonicotinamide] was tested. Which ID50 po did it give?
Its ID50 po is 2.06 mg/kg.

For `CN1C(=O)C(C)(C)c2ccc(NC(=O)c3cccnc3)cc21` [Example 4, N-(1,3,3-Trimethyl-2-oxoindolin-6-yl)nicotinamide], which ID50 po is on record?
The ID50 po was 1.84 mg/kg.

`Cc1ccncc1C(=O)Nc1ccc2c(c1)N(C)C(=O)C2(C)C` [Example 9, 4-Methyl-N-(1,3,3-trimethyl-2-oxoindolin-6-yl)nicotinamide] was tested. Which ID50 po did it give?
The ID50 po was 6.6 mg/kg.

`CN1C(=O)C(C)(C)c2ccc(NC(=O)c3ccncc3Cl)cc21` [Example 27, 3-Chloro-N-(1,3,3-trimethyl-2-oxoindolin-6-yl)isonicotinamide] was tested. Which ID50 po did it give?
Its ID50 po is 1.95 mg/kg.

`CC1(C)C(=O)N(C2CC2)c2cc(NC(=O)c3ccncc3F)ccc21` [Example 31, N-(1-Cyclopropyl-3,3-dimethyl-2-oxoindolin-6-yl)-3-fluoroisonicotinamide] was tested. Which ID50 po did it give?
The ID50 po was 1 mg/kg.
